The numbers were not newly measured in US6667342B1, “Benzenesulfonamide-derivatives and their use as medicaments” (Astrazeneca AB, priority 1998, dated 2003), which cites them from elsewhere.

For `O=C(O)C(Cl)Cl` [DCA, dichloroacetic acid], in the series on PDH (after acute administration in animals (Vary et al. 1988)), the “activity of PDH” value was “increases”. For the same compound, in the series with PDH (single administration, 150 mg/kg, intraperitoneally (Vary et al. 1988)), the “proportion of PDH in its active form” value is recorded as “increased”. For the same compound, the glycaemia result (Stacpoole et al. 1978) was “reducing glycaemia”. The plasma glucose result (after repeated administration (Evans and Stacpoole 1982)) was “significant decrease”.
